One series concerns A549 cells. Kind of series: In vitro cytotoxic activity (Prestoblue). It counts as cell-based, human. Conditions: towards Plasmodium. As to the method: (§1) Assays were performed on different human cancer cell lines (MDA-MB-231, PANC-1, and A549 cells obtained from ATCC) to evaluate the cytotoxicity potential of the compounds 1–3, and the crude extract. Cells were grown in high-glucose Dulbecco’s modified Eagle Medium (DMEM, Gibco) supplemented with glutamine (2 mM), penicillin (50 IU/mL), streptomycin (0.5 mg/mL), sodium pyruvate (0.5 mM), and 10% FBS (Foetal Bovine Serum) at 37 °C with 5% CO2 in the air. Compounds were tested in 96-well microplates using the Prestoblue® colorimetric assay for cell viability based on the reduction of resazurin in resorufin as previously described. Briefly, 2500 cells were seeded per well in 100 µL of medium supplemented with adequate concentrations of the tested drugs. After 72 h of drug exposure, 75 µL of diluted solution of Prestoblue reagent were added to each well, and the plate was incubated in the dark for 2 h at 37 °C. Any changes in cell viability were detected using fluorescence spectroscopy. The fluorescence of resorufin was measured using a SpectraMax i3 plate reader (Molecular Devices™) with excitation and emission wavelengths set at 560 nm and 590 nm, respectively. The cell viability was expressed as a percentage relative to control-vehicle-treated cells (DMSO 0.1%). IC50 values were calculated from graphs based on a regression line in which the resorufin fluorescence values were plotted against the logarithm of drug concentration.

The subject of another series is MDA-MB-231 cells. As to the kind of experiment: In vitro cytotoxic activity (Prestoblue). It counts as cell-based, human. Particulars: towards Plasmodium. The protocol:
as §1

The test system of the next series is PANC-1 cells. Kind of series: In vitro cytotoxic activity (Prestoblue). Format: cell-based, human. Conditions: towards Plasmodium. As to the method:
as §1

Series [1] relates to Leishmania mexicana mexicana. As to the kind of experiment: Antileishmanial assay (AlamarBlue). Format: cell-based. The protocol: (§2) A continuous in vitro culture of asexual erythrocyte stages of P. falciparum, chloroquine-sensitive strain 3D7 (ATCC), was maintained following the procedure of Trager and Jensen. Antiplasmodial activity tests were conducted as previously described by the determination of lactate deshydrogenase activity. IC50 was calculated from graphs (GraphPad Prism). T. brucei strain 427 (Molteno Institute in Cambridge, UK) and L. mexicana mexicana (MHOM/BZ/84/BEL46 from Pr. P.A.M Michels of De Duve Institue, UCLouvain) were maintained following the procedure previously described by the team of Pr. Quetin-Leclercq. Antileshmanial and antitrypanosomal assays were conducted as previously described, using the AlamarBlue assay.
For orientation: Resazurin is reduced to fluorescent resorufin, in cell work by metabolically active cells.

Series [2] has as its system Trypanosoma brucei brucei. Kind of series: Antitrypanosomal assay (AlamarBlue). It counts as cell-based. As to the method: as §2
Another series deals with zebrafish embryos. Kind of series: Zebrafish embryos acute toxicity test. It counts as in vivo, Danio rerio. As to the method:
(§3) Adult zebrafish (Danio rerio) were maintained, fulfilling the criteria of the Ethical Committee for the Use of Laboratory Animals at the University of Liège. They were maintained at 28 °C over a period of 14 h day/10 h night, and fertilized eggs were collected, washed with sterile water, and placed in Petri dishes. The embryos were collected, and their chorions were not removed at 24 hpf. Compound 1 was dissolved in DMSO (the maximum final concentration of DMSO was 0.4%). Twenty embryos were used per condition in a 6-well plate. Each well contained 5 mL of the treatment dose (compound 1 or DMSO 0.4%), which was replaced daily for three days. The embryos were observed under a binocular microscope daily until 72 hpf (hours post fertilization).

A short description of series [3]: Zebrafish embryos acute toxicity test. It counts as in vivo, Danio rerio. Conditions: zebrafish (Danio rerio), in vivo, other: immersion of embryos in treatment solution in wells; zebrafish embryos. The protocol:
as §3

A short description of the next series: Hemolysis. It counts as cell-based.
In the next series the test system is P. falciparum 3D7. As to the kind of experiment: Antiplasmodial activity, lactate dehydrogenase assay. Format: cell-based. Conditions: Plasmodium falciparum. The protocol: as §2
In the next series the test system is zebrafish. Further details: method as in PMID 21738604. Conditions: cited from earlier work.
The mark [4] stands for this setting: n = 3, mean ± SD, read-out: Leishmania IC50 (converted).
Where [5] appears, read: 3D7, n = 3, mean ± SD, read-out: P. falciparum 3D7 IC50 (converted).
The mark [6] stands for this setting: n = 3, mean ± SD, read-out: Trypanosoma IC50 (converted).

≈ marks a conversion by molar mass, not a printed value. Where “and” joins values, the source holds several entries; their conditions need not be identical. Equal values may be shown once. Read-outs that look alike come from different tables or passages of the source.

As usually defined, the IC50 is the concentration that gives 50% inhibition. What is called LC50 is the concentration that kills 50% of the test population. For `C=CC(=C)CC[C@]1(C)[C@H]2C[C@H](OC(=O)CCC)C=C3[C@H](OC(C)=O)O[C@H](OC(C)=O)[C@@]32[C@H](O)C[C@@H]1C` [Compound 1, caseamembrin T], in the series on A549 cells, the “selectivity index against A549” value was 6.5. Also, the “selectivity index against MDA-MB-231” value in the series on MDA-MB-231 cells was determined as 5.4. In the series with PANC-1 cells, the “selectivity index against PANC-1” value is reported as 3. Also, the IC50 in [1] (setting [4]) is 26.1 µg/mL and 51.7 µM; in [2] (read-out: Trypanosoma IC50) it was 3.08 µg/mL and 6.11 µM; in the series on P. falciparum 3D7 (3D7, read-out: P. falciparum 3D7 IC50), 0.25 µg/mL and 490 nM. In addition, the embryos alive in the series with zebrafish embryos (5 µg/mL, 48 hpf) is recorded as 20%. For the same molecule, the state of embryos result with zebrafish embryos (5 µg/mL, 72 hpf) is “lifeless”. The lethality entry in the series on zebrafish embryos (concentrations higher than 5 µg/mL) is “lethal for all embryos”. In addition, in the series on zebrafish embryos (up to a concentration of 1 µg/mL), the “mortality and morphological change” value is “neither mortality nor morphological change were observed”. For the same molecule, in [3], the LC50 at 3 days fell in the range of 1 to 5 µg/mL (≈ 1.98 to 9.91 µM). This molecule also had a hemolysis in the series “Hemolysis” of under 1%.

Consider `C[C@@H]1CC[C@H]2[C@@H](C)C(=O)O[C@@H]3O[C@@]4(C)CC[C@@H]1[C@]32OO4` [Artemisinin, reference compound], for which the IC50 in the series on P. falciparum 3D7 (setting [5]) is 0.004 ± 0.001 µg/mL (≈ 0.0142 µM).

For `C=CC(=C)CC[C@]1(C)[C@H]2C[C@H](OC(=O)C(C)CC)C=C3[C@H](OC(C)=O)O[C@H](OC(C)=O)[C@@]32[C@H](O)C[C@@H]1C` (relative stereo) [Compound 3, rel-(2S,5R,6R,8S,9S,10R,18S,19R)-18,19-epoxy-18,19-diacetoxy-6-hydroxy-2-(2-methylbutanoyloxy)cleroda-3,13(16),14-triene], the IC50 was 26 µg/mL and 50.3 µM in [1] (setting [4]); 3.03 µg/mL and 5.85 µM in series [2] (setting [6]); 0.51 µg/mL and 980 nM in the series with P. falciparum 3D7 (setting [5]). The same molecule yielded a hemolysis in the series “Hemolysis” of under 1%.

`C[C@H]1O[C@@H](O[C@H]2[C@@H](O)C[C@H](O[C@H]3[C@@H](O)C[C@H](O[C@H]4CC[C@@]5(C)[C@H](CC[C@@H]6[C@@H]5C[C@@H](O)[C@]5(C)[C@@H](C7=CC(=O)OC7)CC[C@]65O)C4)O[C@@H]3C)O[C@@H]2C)C[C@H](O)[C@@H]1O` [digoxin]: the “lethal dose 50 (LC50)” value with zebrafish is on record as 0.5 ± 0.006 µg/mL.

On to `N=C(N)c1ccc(OCCCCCOc2ccc(C(=N)N)cc2)cc1` [Pentamidine, reference compound], for which the IC50 in series [1] (read-out: Leishmania IC50) is 0.02 µg/mL and 60 nM.

On to `C=CC(=C)CC[C@]1(C)[C@H]2C[C@H](OC(=O)C(C)C)C=C3[C@H](OC(C)=O)O[C@H](OC(C)=O)[C@@]32[C@H](O)C[C@@H]1C` [Compound 2, corymbulosine I], for which the IC50 in [1] (setting [4]) is 10.3 µg/mL and 20.4 µM; in series [2] (setting [6]), 3 µg/mL and 5.95 µM; in the series on P. falciparum 3D7 (setting [5]) it was 0.4 µg/mL and 790 nM. Further, the hemolysis in the series “Hemolysis” (red blood cells, read-out: Hemolysis) is under 1%.

As for `CC(=O)Nc1ccc(O)cc1` [paracetamol], the “lethal dose 50 (LC50)” value with zebrafish was 535.8 ± 17.1 µg/mL.

With `Cc1ccc(C(=O)Nc2ccc(S(=O)(=O)O)c3cc(S(=O)(=O)O)cc(S(=O)(=O)O)c23)cc1NC(=O)c1cccc(NC(=O)Nc2cccc(C(=O)Nc3cc(C(=O)Nc4ccc(S(=O)(=O)O)c5cc(S(=O)(=O)O)cc(S(=O)(=O)O)c45)ccc3C)c2)c1` [Suramine, reference compound], the IC50 in [2] (setting [6]) is 0.05 µg/mL and 40 nM.

As for `CN1CCC[C@H]1c1cccnc1` [nicotine], the “lethal dose 50 (LC50)” value with zebrafish is 35.1 ± 0.5 µg/mL.
